Test results from patent publication EP0799188B1, “AMIDES OF MONO AND DICARBOXYLIC ACIDS WITH GLYCOSAMINES, SELECTIVELY ACTIVE ON THE CANNABINOID PERIPHERAL RECEPTOR” (LIFEGROUP S.p.A., priority 1994, dated 1996).
Values joined by “and” are separate entries in the source; they are usually repeats but may differ in a detail not shown here. Equal entries are not always repeated. Where two headings read alike, the source gives them in different places.

Legend:
RBL-2H3 cells = test: 3H-serotonin release induced by ADNP/DNP.HSA immunogenic stimulation; format: cell-based, rat; details: for inhibition at 12.5 µM / inhibition at 100 µM / EC50 / inhibition at 25 µM / inhibition at 20 µM / inhibition at 60 µM / inhibition at 10 µM: Rattus norvegicus; for inhibition at 12.5 µM: RBL-2H3, 12.5µM, -WIN; for effect on serotonin release (RBL cells immunogenic activation): statement in words on Table 3; for inhibition at 10 µM: RBL-2H3, 10µM
[1] = solubility in organic solvents; format: physicochemical; details: organic solvent or mixture, read-out: solubility in org. sol.
CB2 receptor = biological target: T1, CB2 receptor (Rattus norvegicus, UniProt Q9QZN9); test: 3H-WIN 55,212-2 binding displacement on RBL-2H3 cell membranes; details: for IC50: RBL-2H3 cell membranes, 1% DMSO, means ± SEM
T1 construct: 30 µg membrane proteins prepared in item a); endogenous in cells; host or cells: RBL-2H3 cells (plasma membrane preparation)
T1 sequence (Q9QZN9 1-360): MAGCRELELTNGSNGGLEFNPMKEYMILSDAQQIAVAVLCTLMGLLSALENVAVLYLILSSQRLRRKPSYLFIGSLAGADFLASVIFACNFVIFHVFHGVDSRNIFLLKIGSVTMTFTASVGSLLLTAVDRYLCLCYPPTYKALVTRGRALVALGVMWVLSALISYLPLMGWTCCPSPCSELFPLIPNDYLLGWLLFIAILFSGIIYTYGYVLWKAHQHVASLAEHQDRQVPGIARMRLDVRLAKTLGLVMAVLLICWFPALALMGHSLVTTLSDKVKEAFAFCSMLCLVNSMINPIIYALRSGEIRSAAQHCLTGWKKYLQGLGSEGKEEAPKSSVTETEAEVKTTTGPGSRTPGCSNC

[2] = read-out: 3H-serotonin net release inhibition (%)
[3] = RBL-2H3, concentration inhibiting by 50% the net release of 3H serotonin, 1% DMSO, 15 minutes release period, means ± SEM, read-out: EC50
[4] = RBL-2H3, concentration inhibiting by 50% the net release of 3H serotonin, 0.2% DMSO, 15 minutes release period, means ± SEM, read-out: EC50
[5] = competitor 10 µM, amides in 0.1% DMSO, Anandamide and Nabilone in 0.1% ethanol
[6] = 100µM, 0.1% DMSO and 0.1% ethanol
[7] = phosphate buffer, pH 7.4, aqueous buffer
[8] = RBL-2H3, inhibition of 3H-serotonin release, +anandamide (12.5 µM), read-out: ED50 (the source's name)
[9] = RBL-2H3, inhibition of 3H-serotonin release, -anandamide, read-out: ED50 (the source's name)

CCCCC/C=C\C/C=C\C/C=C\C/C=C\CCCC(=O)O [arachidonic acid, reference compound]
inhibition at 12.5 µM (RBL-2H3 cells; [2]): 4%

CCCCCCCCCCCCCCCC(=O)NCCC(=O)O [Example 10, N-palmitoyl-β-alanine]
solubility ([1]; in DMSO): > 5000 µg/mL
solubility ([1]; in ethanol): > 5000 µg/mL
water solubility (water solubility): slightly soluble
inhibition at 100 µM (RBL-2H3 cells; RBL-2H3, DMSO 0.2%, 100µM): 47%
EC50 (RBL-2H3 cells; [3]): 30 µM

CCCCCc1cc(O)c2c(c1)OC(C)(C)C1CC=C(C)CC21 (stereo not drawn) [Δ 8-THC, Δ8-tetrahydrocannabinol, reference compound]
inhibition at 25 µM (RBL-2H3 cells; RBL-2H3, read-out: 3H-serotonin net release inhibition (%)): 100%
EC50 (RBL-2H3 cells; RBL-2H3, read-out: ED50 (µM)): 5 µM
EC50 (RBL-2H3 cells; RBL-2H3, read-out: ED50 (µm)): 5 µM
effect on serotonin release (RBL cells immunogenic activation) (RBL-2H3 cells): able to inhibit, in a concentration-dependent way

CCCCCCCC/C=C\CCCCCCCC(=O)N[C@@H](CO)C(=O)O [Example 3, N-oleoyl-L-serine]
solubility ([1]; in DMSO): > 10000 µg/mL
water solubility (water solubility): slightly soluble

CCCCCCCCCCCCCCCC(=O)NCCCC(=O)O [Example 11, N-palmitoyl-gamma-aminobutyric acid]
solubility ([1]; in DMSO): > 5000 µg/mL
solubility ([1]; in ethanol): > 5000 µg/mL
water solubility (water solubility): slightly soluble
EC50 (RBL-2H3 cells; [4]): 26 ± 18 µM

O=C(O)CNC(=O)/C=C/CCCCCCCCC(=O)NCC(=O)O [Example 13, N,N'-trans-2-dodecendioyl-diglycine]
solubility ([1]; in DMSO): > 10000 µg/mL
water solubility (water solubility): slightly soluble
solubility (water solubility; water): > 10000 µg/mL
inhibition at 100 µM (RBL-2H3 cells; RBL-2H3, DMSO 1%, 100µM): 54%

NCCO [ethanolamine, reference compound]
inhibition at 12.5 µM (RBL-2H3 cells; [2]): 6%

CCCCCCCCCCCCCCCC(=O)N[C@@H](CO)C(=O)O [Example 1, N-palmitoyl-L-serine]
solubility ([1]; in DMSO): > 10000 µg/mL
solubility ([1]; in ethanol): > 10000 µg/mL
water solubility (water solubility): slightly soluble
IC50 (CB2 receptor; read-out: IC50): 0.04 nM and 0.05 nM
Displacement (%) (CB2 receptor; [5]): 100%
3H-serotonin net release (%) (RBL-2H3 cells; [6]): 0%
effect on serotonin release (RBL cells immunogenic activation) (RBL-2H3 cells): can inhibit the effects induced by mast cell activation

CCCCCCCCCCCC(=O)N[C@H]1C(O)O[C@H](CO)[C@@H](O)[C@@H]1O (stereo partly drawn) [Example 15, N-lauroyl-D-glucosamine]
solubility ([1]; in DMSO): > 5000 µg/mL
water solubility (water solubility): slightly soluble
inhibition at 20 µM (RBL-2H3 cells; RBL-2H3, DMSO 0.2%): 67%
inhibition at 100 µM (RBL-2H3 cells; RBL-2H3, DMSO 1%, 100µM): 86%
EC50 (RBL-2H3 cells; [4]): 12 µM

CCCCCc1cc(O)c2c(c1)OC(C)(C)[C@@H]1CCC(C)=C[C@@H]21 [Δ9-THC, Δ9-tetrahydrocannabinol, reference compound]
3H-serotonin net release (%) (RBL-2H3 cells; 25µM, 0.1% DMSO and 0.1% ethanol): 27%
EC50 (RBL-2H3 cells; RBL-2H3, read-out: ED50 (µm)): 5 µM
inhibition at 25 µM (RBL-2H3 cells; RBL-2H3, 25µM, -anandamide, read-out: 3H-serotonin net release inhibition (%)): 73%
EC50 (RBL-2H3 cells; RBL-2H3, read-out: ED50 (the source's name)): 5 µM
effect on serotonin release (RBL cells immunogenic activation) (RBL-2H3 cells): able to inhibit, in a concentration-dependent way

CCCCCCCCCCCC(=O)N[C@@H](CO)C(=O)O [Example 2, N-lauroyl-L-serine]
solubility ([1]; in DMSO): > 10000 µg/mL
solubility ([1]; in ethanol): > 10000 µg/mL
water solubility (water solubility): slightly soluble
solubility (water solubility; water): > 10000 µg/mL
inhibition at 100 µM (RBL-2H3 cells; RBL-2H3, DMSO 0.2%, 100µM): 79%
inhibition at 100 µM (RBL-2H3 cells; RBL-2H3, DMSO 1%, 100µM): 61%

CCCCCCCCCCCC(=O)NCC(=O)O [Example 8, N-lauroyl-glycine]
solubility ([1]; in DMSO): > 10000 µg/mL
solubility ([1]; in ethanol): > 10000 µg/mL
water solubility (water solubility): slightly soluble
solubility (water solubility; [7]): > 10000 µg/mL
inhibition at 100 µM (RBL-2H3 cells; RBL-2H3, DMSO 0.2%, 100µM): 93%
inhibition at 100 µM (RBL-2H3 cells; RBL-2H3, DMSO 1%, 100µM): 100%
EC50 (RBL-2H3 cells; [4]): 10 ± 1.5 µM
EC50 (RBL-2H3 cells; [3]): 7 ± 5 µM

CCCCCCCC/C=C\CCCCCCCC(=O)N[C@H]1C(O)O[C@H](CO)[C@@H](O)[C@@H]1O (stereo partly drawn) [Example 16, N-oleoyl-D-glucosamine]
solubility ([1]; in DMSO): > 5000 µg/mL
water solubility (water solubility): slightly soluble
inhibition at 20 µM (RBL-2H3 cells; RBL-2H3, DMSO 0.2%): 92%
inhibition at 100 µM (RBL-2H3 cells; RBL-2H3, DMSO 1%, 100µM): 86%
EC50 (RBL-2H3 cells; [4]): 2.4 ± 0.5 µM
EC50 (RBL-2H3 cells; [8]): 4.2 µM
EC50 (RBL-2H3 cells; [9]): 2.9 µM

CCCCCCCCCCCC(=O)NCC(=O)OC [Example 9, N-lauroyl-glycine methylester]
solubility ([1]; in DMSO): > 10000 µg/mL
solubility ([1]; in ethanol): > 10000 µg/mL
water solubility (water solubility): slightly soluble
inhibition at 100 µM (RBL-2H3 cells; RBL-2H3, DMSO 0.2%, 100µM): 55%

CCCCCCCCCCCCCCCC(=O)N[C@@H](CS)C(=O)O [Example 6, N-palmitoyl-L-cysteine]
solubility ([1]; in DMSO): > 10000 µg/mL
water solubility (water solubility): slightly soluble
inhibition at 60 µM (RBL-2H3 cells; RBL-2H3, DMSO 0.2%): 50%
inhibition at 100 µM (RBL-2H3 cells; RBL-2H3, DMSO 1%, 100µM): 91%
EC50 (RBL-2H3 cells; [3]): 29 ± 12 µM

CCCCCCCCCCCCCCCC(=O)N[C@H]1C(O)O[C@H](CO)[C@@H](O)[C@@H]1O (stereo partly drawn) [Example 14, N-palmitoyl-D-glucosamine]
solubility ([1]; in DMSO): > 1000 µg/mL
water solubility (water solubility): slightly soluble
inhibition at 20 µM (RBL-2H3 cells; RBL-2H3, DMSO 0.2%): 76%
inhibition at 100 µM (RBL-2H3 cells; RBL-2H3, DMSO 1%, 100µM): 91%
EC50 (RBL-2H3 cells; [4]): 1.28 ± 0.38 µM
EC50 (RBL-2H3 cells; [8]): 3.3 µM
EC50 (RBL-2H3 cells; [9]): 0.51 µM

CCCCC/C=C\C/C=C\CCCCCCCC(=O)NCCO [N-(2-hydroxyethyl)-linoleylamide, reference compound]
3H-serotonin net release (%) (RBL-2H3 cells; [6]): 100%

O=C(CCCCCCCC(=O)NC(CO)C(=O)O)NC(CO)C(=O)O (stereo not drawn) [Example 12, N,N' -bis-(1-carboxy-2-hydroxyethyl)-nonandiamide]
solubility ([1]; in DMSO): > 10000 µg/mL
solubility ([1]; in ethanol): > 10000 µg/mL
water solubility (water solubility): slightly soluble
solubility (water solubility; water): > 10000 µg/mL

CCCCCCCCCCCC(=O)N[C@@H](CO)C(=O)OC [Example 5, N-lauroyl-L-serine methylester]
solubility ([1]; in DMSO): > 10000 µg/mL
solubility ([1]; in ethanol): > 10000 µg/mL
water solubility (water solubility): slightly soluble
inhibition at 100 µM (RBL-2H3 cells; RBL-2H3, DMSO 1%, 100µM): 61%
EC50 (RBL-2H3 cells; [4]): 104 ± 59 µM

C=C(C)[C@@H]1CCC(C)=C[C@H]1c1c(O)cc(CCCCC)cc1O [Cannabidiol, reference compound]
IC50 (CB2 receptor; IC50 (nM)): > 1000 nM

CCCCCCCCCCCCCCCC(=O)NCC(=O)O [Example 7, N-palmitoyl-glycine]
solubility ([1]; in DMSO): > 10000 µg/mL
water solubility (water solubility): slightly soluble
Displacement (%) (CB2 receptor; [5]): 79%
Specific binding (CB2 receptor; [5]): 297
3H-serotonin net release (%) (RBL-2H3 cells; 10µM, 0.1% DMSO and 0.1% ethanol): 27%
inhibition at 10 µM (RBL-2H3 cells; + anandamide (12.5 µM), read-out: 3H-serotonin net release inhibition (%)): 24%
inhibition at 10 µM (RBL-2H3 cells; -anandamide, read-out: 3H-serotonin net release inhibition (%)): 73%
inhibition at 60 µM (RBL-2H3 cells; RBL-2H3, DMSO 0.2%): 85%
inhibition at 100 µM (RBL-2H3 cells; RBL-2H3, DMSO 1%, 100µM): 100%
EC50 (RBL-2H3 cells; [8]): > 100 µM
EC50 (RBL-2H3 cells; [9]): 4.8 µM
EC50 (RBL-2H3 cells; RBL-2H3, inhibition of serotonin release, 0.1% DMSO and 0.1% ethanol, read-out: ED50 (µm)): 4.8 µM
effect on serotonin release (RBL cells immunogenic activation) (RBL-2H3 cells): can inhibit the effects induced by mast cell activation

CCCCCCCCCCCCCCCC(=O)NCCO [N-(2-hydroxyethyl)-hexadecanamide, reference compound]
3H-serotonin net release (%) (RBL-2H3 cells; 100µM, 1% DMSO and 1% ethanol): 0%
EC50 (RBL-2H3 cells; RBL-2H3, inhibition of serotonin release, 1% DMSO and 1% ethanol, read-out: ED50 (µm)): 2.6 µM

CCCCCCCCCCCC(=O)N1CC(O)C[C@H]1C(=O)O (stereo partly drawn) [Example 17, N-lauroyl-4-hydroxy-L-proline]
solubility ([1]; in DMSO): > 10000 µg/mL
solubility ([1]; in ethanol): > 10000 µg/mL
water solubility (water solubility): slightly soluble
solubility (water solubility; [7]): > 10000 µg/mL
